Tests used:
[1] = Liver microsome stability; type: in vitro ADME; conditions: human, human liver microsomes, pH 7.4
Description: The in vitro microsome stability assay was performed using human liver microsomes and a Biomek FXP liquid handling workstation to deliver reagents to a 96 deep well plate on a shaking peltier with temperature controls. Human liver microsomes were purchased from Corning®. The test compound was incubated in an aqueous reaction mixture (200 ul total volume) consisting of human liver microsomes (150 mixed donor pool) and NADPH Regenerating System Solutions A and B (Corning®) in the presence of 100 mM potassium phosphate buffer (pH 7.4). The NADPH solution A comprises nicotinamide adenine dinucleotide phosphate (NADP+) and glucose 6-phosphate and solution B contains glucose-6-phosphate dehydrogenase. Solutions A and B were combined prior to adding to the reaction plate to generate a supply of NADPH. The NADPH was added last to simultaneously initiate the reactions. The final concentration of the test compound was 10 uM and the microsomal protein concentration was 0.5 mg/ml. After incubation at 37°C, the reaction was terminated at 0, 5, 10, 20, 30, 40, 50 and 60 minutes, respectively, by the addition of 600 uL of acetonitrile. Three replicates were run for each time point. The quenched reaction plate was centrifuged at 4500 rpm for 10 minutes. The supernatant was diluted 1:2 in 30% Methanol in water for LC/MS/MS analyses to monitor substrate depletion. Water was substituted for NADPH for the zero time-point samples. A control plate, without NADPH cofactor, was completed on the same day, using the same conditions.
The half-life (t1/2) was obtained using the equation below: t1/2=−0.693/slope
Where slope is the slope of the line formed by ln(% remaining test compound) vs. time. The in vitro intrinsic clearance (CLint) value was calculated using equation: CLint=(0.693/t1/2)(incubation volume(ul)/total microsomal protein(mg))

[2] = system: Enterococcus faecalis EF1509; experiment: Murine peritoneal sepsis model; type: in vivo, C57BL/6J mice; conditions: 6jc48-1 100 mg/kg, ampicillin 300 mg/kg
Description: Care of the mice met or exceeded the standards set forth by the National Institute of Health Guide for the care and use of laboratory animals and the AVMA panel on Euthanasia. All procedures in this study have been approved by the Institutional Animal Care and Use Committee (IACUC) at the University of Maryland Baltimore School of Medicine (Protocol number 02122005). Adult C57BL/6J mice (~18 grams, 8–10 weeks old) were used for all experiments. Mice were obtained from the Jackson Laboratory (Bar Harbor, Maine, USA) and housed in the IHV SPC animal core facility. Mice were fed standard chow (Harlan Laboratories) and water ad libitum. […] Infected animals (n = 5) were subsequently treated by intraperitoneal injection 30 min post-infection with 100 mg/kg of compound in 300 μL sterile saline solution, 5% Tween 80, 10% DMSO (V/V), ampicillin (300mg/kg), or vehicle (sterile saline solution, 5% Tween 80, 10% DMSO (V/V)) as positive and negative controls, respectively. Animals were closely observed during a period of 24 h and mice that show signs of severe sepsis were humanely euthanized. Mice were anesthetized by intraperitoneal injection of ketamine (80-100mg/kg) and xylazine (10–15 mg/kg). Once sedated, blood was collected by cardiac puncture. Immediately after blood collection the mice were euthanized by cervical dislocation. Spleens were harvested aseptically, weighed and homogenized in 500 μl of sterile saline solution using an IKA T10 basic disperser (IKA, Wilmington NC). Spleen homogenates were serially diluted and plated onto BHI agar plates. Bacterial counts were determined following 24 h incubation at 37°C and expressed as CFU per gram for spleen.
We established a murine model for sepsis to evaluate the efficacy of 6jc48-1 as an antibiotic agent in vivo. […] Based on the data obtained in the pharmacokinetic analysis, mice (n = 5) were inoculated intraperitoneally with E. faecalis EF1509 (~5 x 10^8 CFU/ animal) and treated after 30 min with compound 6jc48-1 (100 mg/kg IP), ampicillin (300 mg/kg IP) or vehicle. Animals were monitored for survival and after 24 h spleen samples were collected and analyzed for the presence of bacteria. Bacterial counts were determined by plating serial dilutions on BHI agar plates and compared to control treatment with ampicillin as measures of efficacy (Fig 5).

[3] = system: E. faecalis (n=5) clinical isolates; experiment: Activity against Enterococcus spp. (MIC); type: cell-based; conditions: clinical isolates sensitive to linezolid and daptomycin
Description: Determination of the Minimal Inhibitory Concentrations (MIC) by dilution was carried out by broth dilution according to CLSI standards.

COc1ccc2c(c1)[C@]13CCCC[C@@H]1[C@H](C2)N(C)CC3 [dextromethorphan, reference compound]
microsomal CLint at 10 uM ([1]; read-out: Liver microsome intrinsic clearance (positive control)): 31 µL/min/mg
half-life at 10 uM ([1]; read-out: Liver microsome t1/2 (positive control)): 40 min

CC1(C)S[C@@H]2[C@H](NC(=O)[C@H](N)c3ccccc3)C(=O)N2[C@H]1C(=O)O [ampicillin, reference compound]
Bacterial counts in spleen ([2]; IP treatment 30 min post-infection, spleen collected after 24 h): significant bacterial clearance
Survival of infected animals ([2]; n = 5, IP treatment 30 min post-infection, length of the experiment (24 h)): all animals

CN[C@H](CC(C)C)C(=O)N[C@H]1C(=O)N[C@@H](CC(N)=O)C(=O)N[C@H]2C(=O)N[C@H]3C(=O)N[C@H](C(=O)N[C@H](C(=O)O)c4cc(O)cc(O)c4-c4cc3ccc4O)[C@H](O)c3ccc(c(Cl)c3)Oc3cc2cc(c3O[C@@H]2O[C@H](CO)[C@@H](O)[C@H](O)[C@H]2O[C@H]2C[C@](C)(N)[C@H](O)[C@H](C)O2)Oc2ccc(cc2Cl)[C@H]1O [Vancomycin]
Activity (MIC) E. faecalis (n=5) clinical isolates [3]: >32

From publication PMC5077133, “Towards Development of Small Molecule Lipid II Inhibitors as Novel Antibiotics” (PLoS ONE, 2016)
